# Columns and labels:
# [1] = target: T1, Kv4.2 (Rattus norvegicus, UniProt Q63881); test: AA modulation of Kv4.2 current (Kv4.2 expressed alone) in CHO cells; assay type: cell-based; conditions: Kv4.2 alone, 10 μM AA
# T1 construct: expressed in transfected cells; host or cells: CHO cells, transient transfection with GFP co-transfected
# T1 sequence (Q63881 1-630): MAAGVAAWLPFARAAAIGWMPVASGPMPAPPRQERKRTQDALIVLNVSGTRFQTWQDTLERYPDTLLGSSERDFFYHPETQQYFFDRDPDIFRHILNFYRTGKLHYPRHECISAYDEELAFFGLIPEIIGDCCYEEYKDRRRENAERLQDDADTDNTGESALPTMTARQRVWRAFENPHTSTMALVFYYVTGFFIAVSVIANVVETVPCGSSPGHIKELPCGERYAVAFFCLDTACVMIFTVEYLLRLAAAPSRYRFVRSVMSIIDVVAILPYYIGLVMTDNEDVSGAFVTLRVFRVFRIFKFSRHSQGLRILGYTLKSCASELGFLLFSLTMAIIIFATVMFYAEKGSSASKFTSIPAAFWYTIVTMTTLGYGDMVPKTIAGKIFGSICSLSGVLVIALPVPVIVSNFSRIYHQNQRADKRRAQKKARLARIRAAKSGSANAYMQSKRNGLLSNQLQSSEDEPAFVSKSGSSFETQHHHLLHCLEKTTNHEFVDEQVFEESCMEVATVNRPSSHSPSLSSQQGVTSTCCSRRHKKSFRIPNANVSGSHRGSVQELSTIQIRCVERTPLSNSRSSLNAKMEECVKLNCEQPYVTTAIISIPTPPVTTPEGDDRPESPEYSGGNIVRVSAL
# Description: (§1) HEK 293 and CHO cells were used for recordings 1-3 days after a transient transfection. Whole-cell currents were recorded from cells expressing GFP, identified by their green fluorescence. […] After Gigaseal and ruptured whole-cell configuration access, resistance was less than 10 MOhms. Whole-cell bath solutions were made from a 10× Hank's balanced salt solution (GibcoBRL) with the following final concentration (in mM): 138 NaCl, 5.4 KCl, 1.3 MgCl2, 1.3 CaCl2, 5.5 D-Glukos and 10 HEPES, pH 7.4. The intracellular electrode solution consisted of (in mM) 140 KCl, 10 HEPES, 10 EGTA, 0.5 MgCl2, pH 7.3. All chemicals were from Sigma (St. Louis, Mo.) or Fisher Scientific (Houston, Tex.). Membrane currents were recorded using a EPC9 patch-clamp amplifier (HEKA, Germany). Data were analyzed using Matlab (Natick, Ma), and leak subtracted if necessary. All experiments were done at room temperature. […]
# [2] = target: T2, Kv4.2/KChIP1 (Rattus norvegicus, UniProt Q63881); test: AA modulation of Kv4.2/KChIP1 current in CHO cells; assay type: cell-based; conditions: Kv4.2/KChIP1, 10 μM AA
# T2 construct: expressed in transfected cells; host or cells: CHO cells
# T2 sequence (Q63881 1-630): T1 sequence (Q63881 1-630)
# T2 sequence (Q8R426 1-216 isoform Q8R426-2 partner): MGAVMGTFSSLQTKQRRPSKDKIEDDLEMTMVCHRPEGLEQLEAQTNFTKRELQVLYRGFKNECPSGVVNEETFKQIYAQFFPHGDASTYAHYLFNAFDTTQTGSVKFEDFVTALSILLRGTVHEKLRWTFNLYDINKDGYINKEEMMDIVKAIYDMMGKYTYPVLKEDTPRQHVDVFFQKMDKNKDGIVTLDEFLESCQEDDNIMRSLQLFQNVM
# Description: as §1
# [3] = target: T3, Kv1.1 (Rattus norvegicus, UniProt P10499); test: AA modulation of Kv1.1 current in Xenopus oocytes; assay type: cell-based; conditions: Kv1.1 alone, 10 μM AA
# T3 construct: expressed in transfected cells; host or cells: Xenopus oocytes
# Description: Frogs underwent no more than two surgeries and surgeries were performed by well established techniques. Frogs were anesthetized with ice. Total cRNA (1-10 ng) was injected into stage IV Xenopus oocytes that were harvested the previous day. The Xenopus oocytes were incubated in ND96 containing (in mM) 96 NaCl, 2 KCl, 1.8 CaCl2, 1 MgCl2, 5 HEPES, pH 7.6, plus (Gentamycin 50 μg/ml) at 18° C. Xenopus oocytes were studied 3-7 days after injection. The two-electrode voltage-clamp recordings were performed in ND96 solution using a TURBO TEC 03 Clamp Amplifier (ALA Scientific Instruments, Westbury, N.Y.). Both electrodes were filled with 3 M KCl and had electrode resistances ranging from 0.2-1 MOhm. The current signals were filtered at 1000 Hz before transferred on a PC (Gateway, Calif.) using the PULSE software (HEKA, Germany).
# In this example, the foregoing was tested by measuring two alpha/auxiliary complexes: Kv4.3/KChIP1 and Kv1.1/Kvβ1. (Kvβ1, which is one of the classic potassium channel beta subunits, dramatically changes Kv1.1 kinetics). Kv4.3/KChIP and Kv1.1/Kvβ1 were expressed respectively in Xenopus oocytes and their resulting currents were recorded in the presence or absence of […] AA. […] Kinetically, […] was much more sensitive to AA modulation than was Kv1.1/Kvβ1 (Table 4).
# [4] = tested on: Kv4 α subunits; conditions: in oocytes; Villarroel and Schwarz (1996); read-out: IC50 of arachidonic acid on Kv4 α subunits; cited from earlier work
# T3 sequence (P10499 whole entry): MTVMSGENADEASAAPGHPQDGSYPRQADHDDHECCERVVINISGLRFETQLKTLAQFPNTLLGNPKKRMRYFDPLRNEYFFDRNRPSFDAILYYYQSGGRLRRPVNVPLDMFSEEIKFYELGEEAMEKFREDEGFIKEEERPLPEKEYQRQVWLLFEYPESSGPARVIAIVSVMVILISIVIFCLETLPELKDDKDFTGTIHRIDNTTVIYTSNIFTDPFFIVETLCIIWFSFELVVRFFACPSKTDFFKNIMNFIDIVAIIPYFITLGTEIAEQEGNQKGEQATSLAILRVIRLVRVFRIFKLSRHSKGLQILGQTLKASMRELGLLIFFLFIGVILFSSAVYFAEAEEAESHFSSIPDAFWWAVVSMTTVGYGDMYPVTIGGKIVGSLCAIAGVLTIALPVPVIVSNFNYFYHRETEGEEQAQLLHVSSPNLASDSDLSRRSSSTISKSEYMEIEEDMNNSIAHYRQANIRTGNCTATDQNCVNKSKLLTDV
smiles,measurement,setting,value
CCCCC/C=C\C/C=C\C/C=C\C/C=C\CCCC(=O)O [arachidonic acid],Peak amplitude (pA ± SEM),[1],336 ± 82 pA
same,Inactivation time constant (ms ± SEM),[1]; listed as AA,32 ± 2 ms
same,Peak amplitude (pA ± SEM),[2],2827 ± 496 pA
same,Inactivation time constant (ms ± SEM),[2]; listed as AA,37 ± 3 ms
same,Peak amplitude (μA ± SEM),[3],21 ± 3 μA
same,IC50,[4],~8 µM
